What all share (type): functional, cell-based
Experiment [1] relates to A549. Nature of the experiment: Cytotoxicity against human A549 cells by SRB assay.
The subject of experiment [2] is DU-145. Put plainly: Cytotoxicity against human DU145 cells by SRB assay.
For experiment [3], the system named is KB. Put plainly: Cytotoxicity against human KB cells by SRB assay.
The nature of experiment [4]: Cytotoxicity against human KBVIN cells by SRB assay.

≈ marks a conversion by molar mass, not a printed value.

As to `COC(=O)[C@H]1C(/C=C/C(=O)c2ccc([N+](=O)[O-])cc2)=Cc2cc(OC)c(OC)cc2[C@H]1c1cc(OC)c(OC)c(OC)c1`, the half-maximal inhibitory concentration (IC50) was 16.8 µg/mL (≈ 28.5 µM) in experiment [1], 20.3 µg/mL (≈ 34.4 µM) in experiment [2], 16 µg/mL (≈ 27.1 µM) in experiment [3] and 23 µg/mL (≈ 39 µM) in experiment [4].

`COC(=O)[C@H]1C(/C=C/C(=O)c2ccc(O)cc2)=Cc2cc(OC)c(OC)cc2[C@H]1c1cc(OC)c(OC)c(OC)c1`: the IC50 in experiment [1] is 6.79 µg/mL (≈ 12.1 µM); in experiment [2], 5.84 µg/mL (≈ 10.4 µM); in experiment [3], 5.9 µg/mL (≈ 10.5 µM); in experiment [4], 5.17 µg/mL (≈ 9.22 µM).

For `COc1cc2c(cc1OC)[C@@H](c1cc(OC)c(OC)c(OC)c1)[C@H](C(=O)N1CCCC1)C(/C=C/C(=O)c1ccc(C3CCCCC3)cc1)=C2`, the IC50 amounted to 12 µg/mL (≈ 18 µM) in experiment [1], 12.8 µg/mL (≈ 19.2 µM) in experiment [2], 12.3 µg/mL (≈ 18.4 µM) in experiment [3] and 12.3 µg/mL (≈ 18.5 µM) in experiment [4].

Consider `COc1cc2c(cc1OC)[C@@H](c1cc(OC)c(OC)c(OC)c1)[C@H](C(=O)N1CCCC1)C(/C=C/C(=O)c1ccc(-c3ccccc3)cc1)=C2`, for which the IC50 in experiment [1] was determined as 24.6 µg/mL (≈ 37.3 µM); in experiment [2], 15.5 µg/mL (≈ 23.4 µM); in experiment [3] it was 16.6 µg/mL (≈ 25.2 µM); in experiment [4], 16.9 µg/mL (≈ 25.6 µM).

Take `COc1cc([C@@H]2c3cc4c(cc3[C@@H](Nc3ccc([N+](=O)[O-])cc3)[C@H]3COC(=O)[C@H]23)OCO4)cc(OC)c1O`: the IC50 in experiment [1] amounted to 0.113 µg/mL (≈ 0.217 µM); in experiment [2], 0.8 µg/mL (≈ 1.54 µM); in experiment [3] it was 0.819 µg/mL (≈ 1.57 µM); in experiment [4], 2.1 µg/mL (≈ 4.03 µM).

Source of the values: ChEMBL document CHEMBL2040746, “Synthesis and evaluation of novel podophyllotoxin analogs” (Bioorg Med Chem Lett, 2012).
